# Source: the OligoGym collection
# Oligonucleotides are given in HELM: sugar(base)linkage, 5' to 3'; d 2'-deoxyribose, r ribose, m 2'-O-methylribose, p phosphate. ss, as = sense and antisense strand
# Molecular target: Mmp7 (rat)
# Assay: reporter assay of Huesken 2005
# Conditions: siRNA
# Further: test concentration or dose not given here.
row,Substance,normalised inhibition (eCFP-eYFP dual reporter) [%]
1,RNA1{r(U)p.r(A)p.r(G)p.r(G)p.r(A)p.r(A)p.r(A)p.r(U)p.r(U)p.r(U)p.r(U)p.r(A)p.r(C)p.r(C)p.r(U)p.r(U)p.r(C)p.r(A)p.r(C)p.d(T)p.d(T)}|RNA2{r(G)p.r(U)p.r(G)p.r(A)p.r(A)p.r(G)p.r(G)p.r(U)p.r(A)p.r(A)p.r(A)p.r(A)p.r(U)p.r(U)p.r(U)p.r(C)p.r(C)p.r(U)p.r(A)p.d(A)p.d(G)}$$$RNA1{StrandType:ss}|RNA2{StrandType:as}$,86.2
2,RNA1{r(U)p.r(A)p.r(U)p.r(C)p.r(U)p.r(U)p.r(A)p.r(G)p.r(G)p.r(A)p.r(A)p.r(A)p.r(U)p.r(U)p.r(U)p.r(U)p.r(A)p.r(C)p.r(C)p.d(T)p.d(T)}|RNA2{r(G)p.r(G)p.r(U)p.r(A)p.r(A)p.r(A)p.r(A)p.r(U)p.r(U)p.r(U)p.r(C)p.r(C)p.r(U)p.r(A)p.r(A)p.r(G)p.r(A)p.r(U)p.r(A)p.d(A)p.d(T)}$$$RNA1{StrandType:ss}|RNA2{StrandType:as}$,28.4
3,RNA1{r(U)p.r(C)p.r(A)p.r(A)p.r(G)p.r(A)p.r(G)p.r(G)p.r(G)p.r(U)p.r(U)p.r(A)p.r(G)p.r(U)p.r(U)p.r(G)p.r(G)p.r(G)p.r(G)p.d(T)p.d(T)}|RNA2{r(C)p.r(C)p.r(C)p.r(C)p.r(A)p.r(A)p.r(C)p.r(U)p.r(A)p.r(A)p.r(C)p.r(C)p.r(C)p.r(U)p.r(C)p.r(U)p.r(U)p.r(G)p.r(A)p.d(A)p.d(G)}$$$RNA1{StrandType:ss}|RNA2{StrandType:as}$,40.8
4,RNA1{r(U)p.r(C)p.r(A)p.r(C)p.r(G)p.r(A)p.r(C)p.r(U)p.r(C)p.r(U)p.r(A)p.r(A)p.r(A)p.r(A)p.r(C)p.r(A)p.r(A)p.r(A)p.r(G)p.d(T)p.d(T)}|RNA2{r(C)p.r(U)p.r(U)p.r(U)p.r(G)p.r(U)p.r(U)p.r(U)p.r(U)p.r(A)p.r(G)p.r(A)p.r(G)p.r(U)p.r(C)p.r(G)p.r(U)p.r(G)p.r(A)p.d(A)p.d(G)}$$$RNA1{StrandType:ss}|RNA2{StrandType:as}$,108
5,RNA1{r(U)p.r(C)p.r(A)p.r(U)p.r(A)p.r(A)p.r(U)p.r(U)p.r(G)p.r(G)p.r(C)p.r(U)p.r(U)p.r(C)p.r(G)p.r(C)p.r(A)p.r(A)p.r(G)p.d(T)p.d(T)}|RNA2{r(C)p.r(U)p.r(U)p.r(G)p.r(C)p.r(G)p.r(A)p.r(A)p.r(G)p.r(C)p.r(C)p.r(A)p.r(A)p.r(U)p.r(U)p.r(A)p.r(U)p.r(G)p.r(A)p.d(T)p.d(G)}$$$RNA1{StrandType:ss}|RNA2{StrandType:as}$,75.5
6,RNA1{r(U)p.r(C)p.r(A)p.r(U)p.r(U)p.r(C)p.r(A)p.r(G)p.r(A)p.r(A)p.r(G)p.r(A)p.r(C)p.r(U)p.r(U)p.r(C)p.r(A)p.r(G)p.r(U)p.d(T)p.d(T)}|RNA2{r(A)p.r(C)p.r(U)p.r(G)p.r(A)p.r(A)p.r(G)p.r(U)p.r(C)p.r(U)p.r(U)p.r(C)p.r(U)p.r(G)p.r(A)p.r(A)p.r(U)p.r(G)p.r(A)p.d(T)p.d(C)}$$$RNA1{StrandType:ss}|RNA2{StrandType:as}$,54.7
7,RNA1{r(U)p.r(C)p.r(U)p.r(A)p.r(A)p.r(A)p.r(A)p.r(C)p.r(A)p.r(A)p.r(A)p.r(G)p.r(A)p.r(A)p.r(G)p.r(G)p.r(C)p.r(C)p.r(A)p.d(T)p.d(T)}|RNA2{r(U)p.r(G)p.r(G)p.r(C)p.r(C)p.r(U)p.r(U)p.r(C)p.r(U)p.r(U)p.r(U)p.r(G)p.r(U)p.r(U)p.r(U)p.r(U)p.r(A)p.r(G)p.r(A)p.d(G)p.d(T)}$$$RNA1{StrandType:ss}|RNA2{StrandType:as}$,95.7
8,RNA1{r(U)p.r(C)p.r(U)p.r(G)p.r(U)p.r(G)p.r(A)p.r(U)p.r(G)p.r(U)p.r(A)p.r(C)p.r(C)p.r(C)p.r(U)p.r(A)p.r(C)p.r(C)p.r(U)p.d(T)p.d(T)}|RNA2{r(A)p.r(G)p.r(G)p.r(U)p.r(A)p.r(G)p.r(G)p.r(G)p.r(U)p.r(A)p.r(C)p.r(A)p.r(U)p.r(C)p.r(A)p.r(C)p.r(A)p.r(G)p.r(A)p.d(A)p.d(C)}$$$RNA1{StrandType:ss}|RNA2{StrandType:as}$,55.2
9,RNA1{r(U)p.r(C)p.r(U)p.r(G)p.r(U)p.r(U)p.r(C)p.r(C)p.r(C)p.r(A)p.r(G)p.r(U)p.r(U)p.r(C)p.r(U)p.r(G)p.r(U)p.r(G)p.r(A)p.d(T)p.d(T)}|RNA2{r(U)p.r(C)p.r(A)p.r(C)p.r(A)p.r(G)p.r(A)p.r(A)p.r(C)p.r(U)p.r(G)p.r(G)p.r(G)p.r(A)p.r(A)p.r(C)p.r(A)p.r(G)p.r(A)p.d(A)p.d(G)}$$$RNA1{StrandType:ss}|RNA2{StrandType:as}$,99.6
10,RNA1{r(U)p.r(G)p.r(A)p.r(A)p.r(C)p.r(U)p.r(U)p.r(C)p.r(C)p.r(U)p.r(G)p.r(U)p.r(U)p.r(U)p.r(G)p.r(U)p.r(U)p.r(G)p.r(C)p.d(T)p.d(T)}|RNA2{r(G)p.r(C)p.r(A)p.r(A)p.r(C)p.r(A)p.r(A)p.r(A)p.r(C)p.r(A)p.r(G)p.r(G)p.r(A)p.r(A)p.r(G)p.r(U)p.r(U)p.r(C)p.r(A)p.d(C)p.d(G)}$$$RNA1{StrandType:ss}|RNA2{StrandType:as}$,33.7
11,RNA1{r(U)p.r(G)p.r(A)p.r(G)p.r(G)p.r(G)p.r(A)p.r(A)p.r(A)p.r(U)p.r(G)p.r(C)p.r(A)p.r(G)p.r(A)p.r(A)p.r(G)p.r(U)p.r(U)p.d(T)p.d(T)}|RNA2{r(A)p.r(A)p.r(C)p.r(U)p.r(U)p.r(C)p.r(U)p.r(G)p.r(C)p.r(A)p.r(U)p.r(U)p.r(U)p.r(C)p.r(C)p.r(C)p.r(U)p.r(C)p.r(A)p.d(G)p.d(T)}$$$RNA1{StrandType:ss}|RNA2{StrandType:as}$,104
12,RNA1{r(U)p.r(G)p.r(A)p.r(G)p.r(U)p.r(A)p.r(C)p.r(U)p.r(G)p.r(G)p.r(A)p.r(C)p.r(G)p.r(G)p.r(A)p.r(U)p.r(G)p.r(G)p.r(U)p.d(T)p.d(T)}|RNA2{r(A)p.r(C)p.r(C)p.r(A)p.r(U)p.r(C)p.r(C)p.r(G)p.r(U)p.r(C)p.r(C)p.r(A)p.r(G)p.r(U)p.r(A)p.r(C)p.r(U)p.r(C)p.r(A)p.d(T)p.d(C)}$$$RNA1{StrandType:ss}|RNA2{StrandType:as}$,63.1
13,RNA1{r(U)p.r(G)p.r(C)p.r(A)p.r(G)p.r(A)p.r(A)p.r(G)p.r(C)p.r(C)p.r(C)p.r(A)p.r(G)p.r(G)p.r(U)p.r(G)p.r(U)p.r(G)p.r(G)p.d(T)p.d(T)}|RNA2{r(C)p.r(C)p.r(A)p.r(C)p.r(A)p.r(C)p.r(C)p.r(U)p.r(G)p.r(G)p.r(G)p.r(C)p.r(U)p.r(U)p.r(C)p.r(U)p.r(G)p.r(C)p.r(A)p.d(T)p.d(T)}$$$RNA1{StrandType:ss}|RNA2{StrandType:as}$,61.3
14,RNA1{r(U)p.r(G)p.r(C)p.r(A)p.r(G)p.r(A)p.r(A)p.r(U)p.r(U)p.r(C)p.r(U)p.r(C)p.r(A)p.r(C)p.r(U)p.r(A)p.r(A)p.r(U)p.r(G)p.d(T)p.d(T)}|RNA2{r(C)p.r(A)p.r(U)p.r(U)p.r(A)p.r(G)p.r(U)p.r(G)p.r(A)p.r(G)p.r(A)p.r(A)p.r(U)p.r(U)p.r(C)p.r(U)p.r(G)p.r(C)p.r(A)p.d(A)p.d(C)}$$$RNA1{StrandType:ss}|RNA2{StrandType:as}$,72.9
15,RNA1{r(U)p.r(G)p.r(C)p.r(C)p.r(U)p.r(U)p.r(U)p.r(G)p.r(C)p.r(A)p.r(C)p.r(C)p.r(G)p.r(G)p.r(G)p.r(G)p.r(C)p.r(C)p.r(A)p.d(T)p.d(T)}|RNA2{r(U)p.r(G)p.r(G)p.r(C)p.r(C)p.r(C)p.r(C)p.r(G)p.r(G)p.r(U)p.r(G)p.r(C)p.r(A)p.r(A)p.r(A)p.r(G)p.r(G)p.r(C)p.r(A)p.d(T)p.d(G)}$$$RNA1{StrandType:ss}|RNA2{StrandType:as}$,59.1
16,RNA1{r(U)p.r(G)p.r(G)p.r(A)p.r(C)p.r(G)p.r(G)p.r(A)p.r(U)p.r(G)p.r(G)p.r(U)p.r(G)p.r(A)p.r(G)p.r(G)p.r(A)p.r(C)p.r(U)p.d(T)p.d(T)}|RNA2{r(A)p.r(G)p.r(U)p.r(C)p.r(C)p.r(U)p.r(C)p.r(A)p.r(C)p.r(C)p.r(A)p.r(U)p.r(C)p.r(C)p.r(G)p.r(U)p.r(C)p.r(C)p.r(A)p.d(G)p.d(T)}$$$RNA1{StrandType:ss}|RNA2{StrandType:as}$,52.5
17,RNA1{r(U)p.r(G)p.r(G)p.r(A)p.r(G)p.r(U)p.r(G)p.r(C)p.r(C)p.r(A)p.r(G)p.r(A)p.r(U)p.r(G)p.r(U)p.r(U)p.r(G)p.r(C)p.r(A)p.d(T)p.d(T)}|RNA2{r(U)p.r(G)p.r(C)p.r(A)p.r(A)p.r(C)p.r(A)p.r(U)p.r(C)p.r(U)p.r(G)p.r(G)p.r(C)p.r(A)p.r(C)p.r(U)p.r(C)p.r(C)p.r(A)p.d(C)p.d(A)}$$$RNA1{StrandType:ss}|RNA2{StrandType:as}$,91.3
18,RNA1{r(U)p.r(G)p.r(G)p.r(C)p.r(C)p.r(C)p.r(U)p.r(G)p.r(C)p.r(C)p.r(A)p.r(C)p.r(U)p.r(G)p.r(U)p.r(C)p.r(C)p.r(C)p.r(A)p.d(T)p.d(T)}|RNA2{r(U)p.r(G)p.r(G)p.r(G)p.r(A)p.r(C)p.r(A)p.r(G)p.r(U)p.r(G)p.r(G)p.r(C)p.r(A)p.r(G)p.r(G)p.r(G)p.r(C)p.r(C)p.r(A)p.d(G)p.d(G)}$$$RNA1{StrandType:ss}|RNA2{StrandType:as}$,93.6
19,RNA1{r(U)p.r(G)p.r(G)p.r(G)p.r(A)p.r(A)p.r(C)p.r(A)p.r(G)p.r(G)p.r(C)p.r(G)p.r(C)p.r(A)p.r(G)p.r(A)p.r(A)p.r(U)p.r(U)p.d(T)p.d(T)}|RNA2{r(A)p.r(A)p.r(U)p.r(U)p.r(C)p.r(U)p.r(G)p.r(C)p.r(G)p.r(C)p.r(C)p.r(U)p.r(G)p.r(U)p.r(U)p.r(C)p.r(C)p.r(C)p.r(A)p.d(C)p.d(T)}$$$RNA1{StrandType:ss}|RNA2{StrandType:as}$,46.8
20,RNA1{r(U)p.r(G)p.r(G)p.r(U)p.r(G)p.r(A)p.r(G)p.r(G)p.r(A)p.r(C)p.r(U)p.r(C)p.r(A)p.r(G)p.r(G)p.r(C)p.r(G)p.r(U)p.r(G)p.d(T)p.d(T)}|RNA2{r(C)p.r(A)p.r(C)p.r(G)p.r(C)p.r(C)p.r(U)p.r(G)p.r(A)p.r(G)p.r(U)p.r(C)p.r(C)p.r(U)p.r(C)p.r(A)p.r(C)p.r(C)p.r(A)p.d(T)p.d(C)}$$$RNA1{StrandType:ss}|RNA2{StrandType:as}$,69.8
